Biological target: hERG (Homo sapiens, UniProt Q12809)
Experiment: Patch clamp assay (hERG tail currents, whole-cell)

Sequence of hERG (Q12809 whole entry): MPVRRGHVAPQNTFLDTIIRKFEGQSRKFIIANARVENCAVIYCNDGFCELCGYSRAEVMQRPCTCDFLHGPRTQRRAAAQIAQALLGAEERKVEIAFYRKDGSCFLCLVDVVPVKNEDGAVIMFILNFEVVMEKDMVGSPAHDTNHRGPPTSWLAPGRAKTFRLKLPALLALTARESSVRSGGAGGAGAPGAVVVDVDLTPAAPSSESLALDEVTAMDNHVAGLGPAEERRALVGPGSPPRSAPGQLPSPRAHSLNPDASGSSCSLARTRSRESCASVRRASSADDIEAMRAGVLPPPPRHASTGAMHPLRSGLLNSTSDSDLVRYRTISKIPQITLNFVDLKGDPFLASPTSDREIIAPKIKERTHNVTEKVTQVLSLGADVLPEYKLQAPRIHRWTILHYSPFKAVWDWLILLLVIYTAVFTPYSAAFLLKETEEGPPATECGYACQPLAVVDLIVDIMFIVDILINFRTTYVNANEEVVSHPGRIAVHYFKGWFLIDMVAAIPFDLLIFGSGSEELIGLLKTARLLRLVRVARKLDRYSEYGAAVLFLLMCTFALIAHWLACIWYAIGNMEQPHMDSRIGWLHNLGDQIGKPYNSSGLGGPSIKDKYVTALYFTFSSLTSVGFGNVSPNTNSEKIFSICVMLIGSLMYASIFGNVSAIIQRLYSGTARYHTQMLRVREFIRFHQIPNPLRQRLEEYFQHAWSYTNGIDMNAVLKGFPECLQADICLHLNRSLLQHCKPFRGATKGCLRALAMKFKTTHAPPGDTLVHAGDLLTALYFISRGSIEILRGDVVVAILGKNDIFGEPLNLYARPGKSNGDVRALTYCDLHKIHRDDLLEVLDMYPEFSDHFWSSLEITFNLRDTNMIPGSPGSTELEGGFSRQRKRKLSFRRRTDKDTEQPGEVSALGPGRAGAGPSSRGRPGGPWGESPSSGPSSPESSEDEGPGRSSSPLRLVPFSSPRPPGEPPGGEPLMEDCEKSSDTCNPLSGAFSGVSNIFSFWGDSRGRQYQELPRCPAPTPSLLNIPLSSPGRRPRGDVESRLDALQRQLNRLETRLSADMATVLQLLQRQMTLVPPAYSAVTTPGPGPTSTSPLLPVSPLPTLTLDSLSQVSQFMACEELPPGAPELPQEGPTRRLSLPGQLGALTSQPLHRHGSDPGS

Compound	hERG % Remaining (30 μM compound)	hERG % Remaining (10 μM compound)	further results
CCNS(=O)(=O)N[C@@H]1CC[C@@H](CN2CCC3(CC2)CN(c2ncnnc2Oc2ccc(F)cc2C(=O)N(C(C)C)C(C)C)C3)OC1 [Example 198, 2-((5-(7-(((2S,5R)-5-((N-Ethylsulfamoyl)amino)tetrahydro-2H-pyran-2-yl)methyl)-2,7-diazaspiro[3.5]nonan-2-yl)-1,2,4-triazin-6-yl)oxy)-5-fluoro-N,N-diisopropylbenzamide]	+++ (≥66%)	–	–
CC(C)N(C(=O)c1cc(F)ccc1Oc1cncnc1N1CC2(CCN(C[C@@H]3CC[C@@H](NS(=O)(=O)N4CCC4)CO3)CC2)C1)C1COC1 [Example 248, 2-((4-(7-(((2S,5R)-5-(Azetidine-1-sulfonamido)tetrahydro-2H-pyran-2-yl)methyl)-2,7-diazaspiro[3.5]nonan-2-yl)pyrimidin-5-yl)oxy)-5-fluoro-N-isopropyl-N-(oxetan-3-yl)benzamide]	+++ (≥66%)	–	–
CC(C)N(CCC#N)C(=O)c1cc(F)ccc1Oc1cncnc1N1CC2(CCN(C[C@@H]3CC[C@@H](NS(=O)(=O)N(C)C)CO3)CC2)C1 [Example 183, N-(2-Cyanoethyl)-2-((4-(7-(((2S,5R)-5-((N,N-dimethylsulfamoyl)amino)tetrahydro-2H-pyran-2-yl)methyl)-2,7-diazaspiro[3.5]nonan-2-yl)pyrimidin-5-yl)oxy)-5-fluoro-N-isopropylbenzamide]	+++ (≥66%)	–	–
CC(C)N(C(=O)c1cc(F)ccc1Oc1nncnc1N1CC2(CCN(C[C@@H]3CC[C@@H](NS(=O)(=O)N4CCC4)CO3)CC2)C1)C(C)C [Example 199, 2-((5-(7-(((2S,5R)-5-(Azetidine-1-sulfonamido)tetrahydro-2H-pyran-2-yl)methyl)-2,7-diazaspiro[3.5]nonan-2-yl)-1,2,4-triazin-6-yl)oxy)-5-fluoro-N,N-diisopropylbenzamide]	+++ (≥66%)	–	–
CCN(C(=O)c1cc(F)ccc1Oc1cncnc1N1CC2(CCN(C[C@@H]3CC[C@@H](NS(=O)(=O)c4cccnc4)CO3)CC2)C1)C(C)C [Example 63, N-Ethyl-5-fluoro-N-isopropyl-2-((4-(7-(((2S,5R)-5-(pyridine-3-sulfonamido)tetrahydro-2H-pyran-2-yl)methyl)-2,7-diazaspiro[3.5]nonan-2-yl)pyrimidin-5-yl)oxy)benzamide]	++ (233% and ≤66%)	+++ (≥66%)	–
CC(C)N(C)C(=O)c1cc(F)ccc1Oc1cncnc1N1CC2(CCN(C[C@@H]3CC[C@@H](NS(=O)(=O)N4CCC4)CO3)CC2)C1 [Example 138, 2-((4-(7-(((2S,5R)-5-(Azetidine-1-sulfonamido)tetrahydro-2H-pyran-2-yl)methyl)-2,7-diazaspiro[3.5]nonan-2-yl)pyrimidin-5-yl)oxy)-5-fluoro-N-isopropyl-N-methylbenzamide]	+++ (≥66%)	–	–
CCN(C(=O)c1cc(F)ccc1Oc1cncnc1N1CC2(CCN(C[C@@H]3CC[C@@H](NS(=O)(=O)N4CCC4)CO3)CC2)C1)C(C)C [Example 69, 2-((4-(7-(((2S,5R)-5-(Azetidine-1-sulfonamido)tetrahydro-2H-pyran-2-yl)methyl)-2,7-diazaspiro[3.5]nonan-2-yl)pyrimidin-5-yl)oxy)-N-ethyl-5-fluoro-N-isopropylbenzamide]	++ (233% and ≤66%)	+++ (≥66%)	–
C[C@@H]1COC[C@@H](C)N1C(=O)c1cc(F)ccc1Oc1cncnc1N1CC2(CCN(C[C@@H]3CC[C@@H](NS(=O)(=O)N(C)C)CO3)CC2)C1 [Example 123, {[(3R,6S)-6-{[2-(5-{2-[(3R,5R)-3,5-Dimethylmorpholine-4-carbonyl]-4-fluorophenoxy}pyrimidin-4-yl)-2,7-diazaspiro[3.5]nonan-7-yl]methyl}oxan-3-yl]sulfamoyl}dimethylamine]	+++ (≥66%)	–	–
CC(C)N(CC(F)F)C(=O)c1cc(F)ccc1Oc1cncnc1N1CC2(CCN(C[C@@H]3CC[C@@H](NS(=O)(=O)N4CCC4)CO3)CC2)C1 [Example 99, 2-((4-(7-(((2S,5R)-5-(Azetidine-1-sulfonamido)tetrahydro-2H-pyran-2-yl)methyl)-2,7-diazaspiro[3.5]nonan-2-yl)pyrimidin-5-yl)oxy)-N-(2,2-difluoroethyl)-5-fluoro-N-isopropylbenzamide]	++ (233% and ≤66%)	+++ (≥66%)	–
CC(C)N(C(=O)c1cc(F)ccc1Oc1nncnc1N1CC2(CCN(C[C@@H]3CC[C@@H](NS(=O)(=O)C4CC4)CO3)CC2)C1)C(C)C [Example 196, 2-((5-(7-(((2S,5R)-5-(Cyclopropanesulfonamido)tetrahydro-2H-pyran-2-yl)methyl)-2,7-diazaspiro[3.5]nonan-2-yl)-1,2,4-triazin-6-yl)oxy)-5-fluoro-N,N-diisopropylbenzamide]	+++ (≥66%)	–	–
CC(C)N(CC(F)F)C(=O)c1cc(F)ccc1Oc1cncnc1N1CC2(CCN(C[C@@H]3CC[C@@H](NS(=O)(=O)NC4CC4)CO3)CC2)C1 [Example 149, 2-((4-(7-(((2S,5R)-5-((N-Cyclopropylsulfamoyl)amino)tetrahydro-2H-pyran-2-yl)methyl)-2,7-diazaspiro[3.5]nonan-2-yl)pyrimidin-5-yl)oxy)-N-(2,2-difluoroethyl)-5-fluoro-N-isopropylbenzamide]	+++ (≥66%)	–	–
CCN(C(=O)c1cc(F)ccc1Oc1cncnc1N1CC2(CCN(C[C@@H]3CC[C@@H](NC(=O)OC(C)(C)C)CO3)CC2)C1)C(C)C [Example 11, tert-Butyl ((3R,6S)-6-((2-(5-(2-(ethyl(isopropyl)carbamoyl)-4-fluorophenoxy)pyrimidin-4-yl)-2,7-diazaspiro[3.5]nonan-7-yl)methyl)tetrahydro-2H-pyran-3-yl)carbamate]	+ (<33%)	+ (<33%)	–
CCNS(=O)(=O)N[C@@H]1CC[C@@H](CN2CCC3(CC2)CN(c2ncncc2Oc2ccc(F)cc2C(=O)N(C(C)C)C(C)C)C3)OC1 [Example 144, 2-((4-(7-(((2S,5R)-5-((N-Ethylsulfamoyl)amino)tetrahydro-2H-pyran-2-yl)methyl)-2,7-diazaspiro[3.5]nonan-2-yl)pyrimidin-5-yl)oxy)-5-fluoro-N,N-diisopropylbenzamide]	+++ (≥66%)	–	–
CCS(=O)(=O)N[C@@H]1CC[C@@H](CN2CCC3(CC2)CN(c2ncncc2Oc2ccc(F)cc2C(=O)N(C(C)C)[C@@H]2CC[C@@H]2O)C3)OC1 [Example 258, 2-((4-(7-(((2S,5R)-5-(Ethylsulfonamido)tetrahydro-2H-pyran-2-yl)methyl)-2,7-diazaspiro[3.5]nonan-2-yl)pyrimidin-5-yl)oxy)-5-fluoro-N-((1R,2S)-2-hydroxycyclobutyl)-N-isopropylbenzamide]	++ (233% and ≤66%)	+++ (≥66%)	–
CCN(CC)S(=O)(=O)N[C@@H]1CC[C@@H](CN2CCC3(CC2)CN(c2ncncc2Oc2ccc(F)cc2C(=O)N(C(C)C)[C@@H]2CCOC2)C3)OC1 [Example 165, 2-((4-(7-(((2S,5R)-5-((N,N-Diethylsulfamoyl)amino)tetrahydro-2H-pyran-2-yl)methyl)-2,7-diazaspiro[3.5]nonan-2-yl)pyrimidin-5-yl)oxy)-5-fluoro-N-isopropyl-N-((R)-tetrahydrofuran-3-yl)benzamide]	++ (233% and ≤66%)	+++ (≥66%)	–
CCNS(=O)(=O)N[C@@H]1CC[C@@H](CN2CCC3(CC2)CN(c2ncncc2Oc2ccc(F)cc2C(=O)N(CC)C(C)C)C3)OC1 [Example 141, N-Ethyl-2-((4-(7-(((2S,5R)-5-((N-ethylsulfamoyl)amino)tetrahydro-2H-pyran-2-yl)methyl)-2,7-diazaspiro[3.5]nonan-2-yl)pyrimidin-5-yl)oxy)-5-fluoro-N-isopropylbenzamide]	+++ (≥66%)	–	–
CC(C)N(C(=O)c1cc(F)ccc1Oc1cncnc1N1CC2(CCN(C[C@@H]3CC[C@@H](NS(=O)(=O)C4CC4)CO3)CC2)C1)[C@@H]1CCOC1 [Example 164, 2-((4-(7-(((2S,5R)-5-(Cyclopropanesulfonamido)tetrahydro-2H-pyran-2-yl)methyl)-2,7-diazaspiro[3.5]nonan-2-yl)pyrimidin-5-yl)oxy)-5-fluoro-N-isopropyl-N-((R)-tetrahydrofuran-3-yl)benzamide]	+++ (≥66%)	+++ (≥66%)	–
CC(C)N(C(=O)c1cc(F)ccc1Oc1cncnc1N1CC2(CCN(C[C@@H]3CC[C@@H](NS(=O)(=O)N4CCC4)CO3)CC2)C1)[C@H]1CCOC1 [Example 134, 2-((4-(7-(((2S,5R)-5-(Azetidine-1-sulfonamido)tetrahydro-2H-pyran-2-yl)methyl)-2,7-diazaspiro[3.5]nonan-2-yl)pyrimidin-5-yl)oxy)-5-fluoro-N-isopropyl-N-((S)-tetrahydrofuran-3-yl)benzamide]	+++ (≥66%)	–	–
CCN(C(=O)c1cc(F)ccc1Oc1cncnc1N1CC2(CCN(C[C@@H]3CC[C@@H](NC(=O)NCC(F)(F)F)CO3)CC2)C1)C(C)C [Example 37, N-Ethyl-5-fluoro-N-isopropyl-2-((4-(7-(((2S,5R)-5-(3-(2,2,2-trifluoroethyl)ureido)tetrahydro-2H-pyran-2-yl)methyl)-2,7-diazaspiro[3.5]nonan-2-yl)pyrimidin-5-yl)oxy)benzamide]	+ (<33%)	+ (<33%)	–
CCN(C(=O)c1cc(F)ccc1Oc1cncnc1N1CC2(CCN(C[C@@H]3CC[C@@H](NS(=O)(=O)c4ccccc4Cl)CO3)CC2)C1)C(C)C [Example 59, 2-((4-(7-(((2S,5R)-5-((2-Chlorophenyl)sulfonamido)tetrahydro-2H-pyran-2-yl)methyl)-2,7-diazaspiro[3.5]nonan-2-yl)pyrimidin-5-yl)oxy)-N-ethyl-5-fluoro-N-isopropylbenzamide]	+ (<33%)	+ (<33%)	–
CCN(C(=O)c1cc(F)ccc1Oc1cncnc1N1CC2(CCN(C[C@H]3CC[C@H](NS(=O)(=O)CC)CC3)CC2)C1)C(C)C [SNDX-5613]	++ (233% and ≤66%)	++ (233% and ≤66%)	hERG % Remaining (1 μM compound): +++ (≥66%); hERG % Remaining (3 μM compound): +++ (≥66%); hERG % Remaining (100 μM compound): + (<33%); hERG IC50 (μM) (hERG stably transfected HEK 293 cells): + (<25 PM)

From patent US20240400564A1 (Syndax Pharmaceuticals, Inc, priority 2021, published 2024)
